Test results published in patent US11141413B2, “Method of treating renal cell carcinoma using N-(4-(6,7-dimethoxyquinolin-4-yloxy)phenyl)-N′-(4-fluorophenyl)cyclopropane-1,1-dicarboxamide, (2S)-hydroxybutanedioate” (Exelixis, Inc., priority 2016, dated 2021).

Tested on: bone metastases in advanced RCC patients
Assay: METEOR bone endpoints: bone scan response, skeletal-related events, bone markers
Type: in vivo, human
Conditions: for C-terminal cross-lined telopeptides of type 1 collagen (CTx), median / N-terminal propeptide of type 1 collagen (P1NP), median: patients with bone metastases at baseline; for Bone scan response (BSR) per IRC: patients with bone lesions at baseline by bone scan, BSR = ≥30% decrease in BSLA
Source text: The study design in depicted in FIG. 8.3. Clinical outcome measures included PFS, ORR, overall survival (OS), and safety. Exploratory endpoints included bone scan response (BSR) in patients with bone scan lesions at baseline (Brown Nucl Med Commun 2012 33:384), incidence of skeletal-related events (SRE), and changes in bone turnover markers. The subgroup of patients with bone metastases (N=142) was defined by the presence of bone metastases at baseline by CT or MRI per IRC. Bone scan response (BSR) was evaluated for patients who had bone lesions detected by technetium bone scans at baseline (N=178).
Participants were screened via CT or MRI every 8 weeks for the first 12-months post-randomization, and then every 12 weeks thereafter. Technetium bone scans were performed at screening (all patients), every 16 weeks for the first 12 months post-randomization (only in patients with bone lesions at baseline), and then every 23 weeks thereafter. Skeletal-related events (SREs) were assessed and consisted of pathological fractures, spinal cord compression, surgery to bone, and external radiation therapy to bone. Serum bone marker analyses consisted on N-terminal propeptide of type I collagen (PINP), and the bone resorption marker c-terminal cross-lined telopeptides of type I collagen (CTx), which were collected prior to the first dose at week 1, at week 5, and at week 9.
Bone scan responses per IRC in patients with bone scan lesions were performed using computer-assisted detection of bone scan lesions. An IRC was used to quantitate bone scan tumor burden using computer-assisted detection (CAD) to measure lesions and defined criteria for response. Bone scan lesion area (BSLA), which represents the number of pixels with radiotracer uptake above the threshold for normal bone, was also calculated. BSR was defined as greater than or equal to 30% decrease in BSLA.

[1] = patients with an SRE pre-randomization
[2] = prior history of SREs, Pts with Bone Metastases
[3] = prior history of SREs, Pts without Bone Metastases

Structure (SMILES)	C-terminal cross-lined telopeptides of type 1 collagen (CTx), median (Baseline) [µg/L]	N-terminal propeptide of type 1 collagen (P1NP), median (Baseline) [µg/L]	Post-Randomization SREs, % (Pts with Bone Metastases)	Post-randomization SRE: External radiation therapy to bone, % (Pts with Bone Metastases)	Post-randomization SRE: Pathologic fractures, % (Pts with Bone Metastases)	Post-randomization SRE: Spinal cord compression, % (Pts with Bone Metastases)	Post-randomization SRE: Surgery to bone, % (Pts with Bone Metastases)	Time to first SRE, median (Pts with Bone Metastases) [months]	Post-Randomization SREs, % (Pts without Bone Metastases)	Post-randomization SRE: External radiation therapy to bone, % (Pts without Bone Metastases)	Post-randomization SRE: Pathologic fractures, % (Pts without Bone Metastases)	Post-randomization SRE: Spinal cord compression, % (Pts without Bone Metastases)	Post-randomization SRE: Surgery to bone, % (Pts without Bone Metastases)	Time to first SRE, median (Pts without Bone Metastases) [months]	C-terminal cross-lined telopeptides of type 1 collagen (CTx), median (Week 5) [µg/L]	N-terminal propeptide of type 1 collagen (P1NP), median (Week 5) [µg/L]	Cases of spinal cord compression [1]	Incidence of post-randomization SREs [1] [%]	Bone scan response (BSR) per IRC [%]	Post-randomization SRE: External radiation therapy to bone, % [2]	other results
COc1cc2nccc(Oc3ccc(NC(=O)C4(C(=O)Nc5ccc(F)cc5)CC4)cc3)c2cc1OC [cabozantinib]	0.40	48.5	(21) %	(9) %	(12) %	(3) %	(8) %	3.45	(9) %	(7) %	(3) %	(1) %	(2) %	3.93	0.19	38.9	0	16	18	(9) %	Reductions in bone markers (cabozantinib vs everolimus): greater; Bone scan response (BSR) per IRC (listed as Cabozantinib): 18 (11, 27) %; Post-randomization SRE: Pathologic fractures, % [2]: (14) %; Post-randomization SRE: Surgery to bone, % [2]: (9) %; SREs in patients with a prior history of SREs, % [2]: (23) %; Time to first SRE, median [2]: 3.25 months; Post-randomization SRE: External radiation therapy to bone, % [3]: (8) %; Post-randomization SRE: Pathologic fractures, % [3]: (6) %; Post-randomization SRE: Surgery to bone, % [3]: (4) %; SREs in patients with a prior history of SREs, % [3]: (10) %; Time to first SRE, median [3]: 2.76 months; Cases of spinal cord compression (randomized patients): 4; Patients with at least one skeletal-related event (SRE) (randomized patients): 12%
CO[C@H]1C[C@@H]2CC[C@@H](C)[C@@](O)(O2)C(=O)C(=O)N2CCCC[C@H]2C(=O)O[C@H]([C@H](C)C[C@@H]2CC[C@@H](OCCO)[C@H](OC)C2)CC(=O)[C@H](C)/C=C(\C)[C@@H](O)[C@@H](OC)C(=O)[C@H](C)C[C@H](C)/C=C/C=C/C=C/1C [everolimus]	0.43	49.9	(29) %	(25) %	(5) %	(6) %	(8) %	2.53	(10) %	(7) %	(3) %	(2) %	(2) %	4.27	0.43	44.1	5	34	10	(28) %	Bone scan response (BSR) per IRC (listed as Everolimus): 10 (4, 19) %; Post-randomization SRE: Pathologic fractures, % [2]: (5) %; Post-randomization SRE: Spinal cord compression, % [2]: (5) %; Post-randomization SRE: Surgery to bone, % [2]: (7) %; SREs in patients with a prior history of SREs, % [2]: (33) %; Time to first SRE, median [2]: 2.41 months; Post-randomization SRE: External radiation therapy to bone, % [3]: (23) %; Post-randomization SRE: Pathologic fractures, % [3]: (13) %; Post-randomization SRE: Spinal cord compression, % [3]: (6) %; Post-randomization SRE: Surgery to bone, % [3]: (9) %; SREs in patients with a prior history of SREs, % [3]: (36) %; Time to first SRE, median [3]: 4.27 months; Cases of spinal cord compression (randomized patients): 8; Patients with at least one skeletal-related event (SRE) (randomized patients): 14%
